Test results taken from patent US8044069B2, “Compounds as calcium channel blockers” (Abbott Laboratories, priority 2008, dated 2011).

Biological target: human Cav2.2 (Homo sapiens, UniProt Q00975)
Experiment: Assessment of calcium channel activity using FLIPR (Ca2+ influx in IMR32 cells)
Type: cell-based
Conditions: IMR32 cells endogenously expressing human Cav2.2; 60 minute pre-incubation; 2 μM nifedipine; depolarized with 80 mM KCl, 5 mM CaCl2
Protocol: (i) In Vitro Methods—Assessment of Calcium Channel Activity Using FLIPR:
The IMR32 cells were maintained in MEM media containing 10% (v/v) FBS, 1% (v/v) antibiotic/antimitotic, 1% (v/v) sodium pyruvate and 1% (v/v) MEM NEAA. Following dissociation in 0.05% (v/v) trypsin/EDTA, cells were seeded into black 1×96-well plates (Corning Cellbind) at a density of 1-1.2×10^5 cells/well and incubated in the maintenance media above for 48 hours at 37° C. […] After dye loading and a subsequent 60 minute pre-incubation with compounds (full log dilutions from 10 μM to 0.1 nM) in the presence of 1.3 mM CaCl2 and 2 μM nifedipine to block endogenous L-type channels, the external Ca^2+ concentration was increased to 5 mM CaCl2 and the cells concomitantly depolarized with 80 mM KCl to assay channel activity. To determine the IC50 values, the percent inhibition of the compound at each concentration was determined relative to the activity in the absence of inhibitor, and data was fitted using non-linear regression sigmoidal dose response curve analysis with GraphPad Prism®.

Sequence of human Cav2.2 (Q00975 whole entry): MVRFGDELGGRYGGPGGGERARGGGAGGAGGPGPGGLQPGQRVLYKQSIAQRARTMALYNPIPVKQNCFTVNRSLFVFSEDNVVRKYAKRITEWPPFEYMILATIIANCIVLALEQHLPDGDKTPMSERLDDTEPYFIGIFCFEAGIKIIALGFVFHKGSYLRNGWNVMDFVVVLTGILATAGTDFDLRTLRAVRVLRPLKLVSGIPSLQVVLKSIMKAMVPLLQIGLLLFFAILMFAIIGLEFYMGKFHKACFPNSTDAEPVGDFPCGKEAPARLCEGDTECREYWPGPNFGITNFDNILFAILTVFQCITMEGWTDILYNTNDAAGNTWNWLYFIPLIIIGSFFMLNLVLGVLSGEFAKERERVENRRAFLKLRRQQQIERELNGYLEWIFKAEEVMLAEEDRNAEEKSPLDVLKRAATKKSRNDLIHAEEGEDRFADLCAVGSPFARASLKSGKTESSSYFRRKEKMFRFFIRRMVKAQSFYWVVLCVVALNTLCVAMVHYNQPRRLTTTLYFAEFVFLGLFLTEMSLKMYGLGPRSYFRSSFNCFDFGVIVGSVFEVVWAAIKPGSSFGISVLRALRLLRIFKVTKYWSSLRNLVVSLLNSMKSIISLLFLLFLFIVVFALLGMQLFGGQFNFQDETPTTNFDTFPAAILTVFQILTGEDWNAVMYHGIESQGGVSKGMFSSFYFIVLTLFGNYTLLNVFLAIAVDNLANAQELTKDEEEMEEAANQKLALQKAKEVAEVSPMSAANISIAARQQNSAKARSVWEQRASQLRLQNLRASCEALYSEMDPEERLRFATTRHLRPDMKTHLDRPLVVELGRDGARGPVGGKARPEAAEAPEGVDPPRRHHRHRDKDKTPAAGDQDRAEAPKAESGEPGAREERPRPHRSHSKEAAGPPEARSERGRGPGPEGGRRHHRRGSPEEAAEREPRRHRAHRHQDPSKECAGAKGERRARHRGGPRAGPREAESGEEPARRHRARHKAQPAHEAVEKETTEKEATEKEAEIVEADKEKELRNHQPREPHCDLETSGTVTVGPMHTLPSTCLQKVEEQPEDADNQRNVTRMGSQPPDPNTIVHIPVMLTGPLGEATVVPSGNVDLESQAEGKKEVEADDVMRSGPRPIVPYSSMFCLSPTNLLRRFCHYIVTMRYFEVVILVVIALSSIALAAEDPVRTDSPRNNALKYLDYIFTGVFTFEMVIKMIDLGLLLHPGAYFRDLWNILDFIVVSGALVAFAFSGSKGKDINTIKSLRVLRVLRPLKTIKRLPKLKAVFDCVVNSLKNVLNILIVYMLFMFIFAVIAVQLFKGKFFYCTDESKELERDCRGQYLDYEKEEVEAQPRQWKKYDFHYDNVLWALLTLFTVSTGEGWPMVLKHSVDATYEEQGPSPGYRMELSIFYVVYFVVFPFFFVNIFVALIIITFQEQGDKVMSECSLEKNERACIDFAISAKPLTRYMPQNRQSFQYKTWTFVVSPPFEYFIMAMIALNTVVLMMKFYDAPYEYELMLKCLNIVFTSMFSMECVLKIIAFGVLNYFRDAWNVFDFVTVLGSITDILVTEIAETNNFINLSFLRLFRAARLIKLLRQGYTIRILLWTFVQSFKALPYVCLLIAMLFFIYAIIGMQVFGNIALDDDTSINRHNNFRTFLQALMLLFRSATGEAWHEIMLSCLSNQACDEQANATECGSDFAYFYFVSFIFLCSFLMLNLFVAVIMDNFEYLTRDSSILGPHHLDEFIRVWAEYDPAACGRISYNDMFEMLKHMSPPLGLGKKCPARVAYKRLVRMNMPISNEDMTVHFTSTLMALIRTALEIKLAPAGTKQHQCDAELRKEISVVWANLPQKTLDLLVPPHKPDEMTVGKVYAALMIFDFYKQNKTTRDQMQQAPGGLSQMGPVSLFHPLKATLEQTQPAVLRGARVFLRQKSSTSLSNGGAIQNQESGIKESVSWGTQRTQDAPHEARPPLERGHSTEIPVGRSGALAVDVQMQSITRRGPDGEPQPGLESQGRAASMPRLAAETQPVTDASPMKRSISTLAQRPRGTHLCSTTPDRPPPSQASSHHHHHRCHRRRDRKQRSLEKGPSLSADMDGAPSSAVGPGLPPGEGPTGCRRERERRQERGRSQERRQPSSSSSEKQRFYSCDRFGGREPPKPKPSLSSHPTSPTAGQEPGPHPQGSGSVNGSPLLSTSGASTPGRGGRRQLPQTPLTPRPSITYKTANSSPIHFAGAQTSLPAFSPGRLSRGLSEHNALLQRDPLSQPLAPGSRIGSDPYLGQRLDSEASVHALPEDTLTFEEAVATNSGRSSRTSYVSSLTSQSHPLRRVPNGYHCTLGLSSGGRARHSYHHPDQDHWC
Sequence of human Cav2.2 (P54289 25-951 partner limits assumed): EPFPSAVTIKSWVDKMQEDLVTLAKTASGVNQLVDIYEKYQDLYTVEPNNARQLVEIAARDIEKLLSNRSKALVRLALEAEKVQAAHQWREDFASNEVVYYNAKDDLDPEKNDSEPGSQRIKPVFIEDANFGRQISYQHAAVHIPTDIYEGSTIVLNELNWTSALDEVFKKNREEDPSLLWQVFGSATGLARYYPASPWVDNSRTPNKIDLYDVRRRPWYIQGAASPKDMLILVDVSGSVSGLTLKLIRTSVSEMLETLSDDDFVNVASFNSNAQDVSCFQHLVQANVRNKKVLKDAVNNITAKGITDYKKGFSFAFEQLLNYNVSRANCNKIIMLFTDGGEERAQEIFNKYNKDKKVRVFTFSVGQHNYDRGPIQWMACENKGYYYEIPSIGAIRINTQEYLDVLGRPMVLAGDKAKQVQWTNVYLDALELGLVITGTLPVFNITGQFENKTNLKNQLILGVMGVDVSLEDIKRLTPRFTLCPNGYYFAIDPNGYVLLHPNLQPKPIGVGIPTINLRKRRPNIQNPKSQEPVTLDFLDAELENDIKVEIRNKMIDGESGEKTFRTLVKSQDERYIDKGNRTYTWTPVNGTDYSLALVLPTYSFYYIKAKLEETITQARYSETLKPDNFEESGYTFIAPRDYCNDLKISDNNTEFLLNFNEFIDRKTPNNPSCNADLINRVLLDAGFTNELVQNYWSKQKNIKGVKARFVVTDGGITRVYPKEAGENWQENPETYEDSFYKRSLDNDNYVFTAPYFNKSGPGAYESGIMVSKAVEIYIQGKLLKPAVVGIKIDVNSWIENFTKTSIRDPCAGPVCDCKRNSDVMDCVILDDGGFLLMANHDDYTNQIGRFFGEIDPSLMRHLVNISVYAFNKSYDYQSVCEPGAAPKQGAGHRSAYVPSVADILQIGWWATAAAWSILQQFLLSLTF
Sequence of human Cav2.2 (P54289 952-1103 partner limits assumed): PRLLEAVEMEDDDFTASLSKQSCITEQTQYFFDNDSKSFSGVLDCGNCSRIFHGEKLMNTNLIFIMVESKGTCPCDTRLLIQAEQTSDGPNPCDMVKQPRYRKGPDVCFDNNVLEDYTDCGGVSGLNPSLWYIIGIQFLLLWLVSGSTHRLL
Sequence of human Cav2.2 (P54284 whole entry partner): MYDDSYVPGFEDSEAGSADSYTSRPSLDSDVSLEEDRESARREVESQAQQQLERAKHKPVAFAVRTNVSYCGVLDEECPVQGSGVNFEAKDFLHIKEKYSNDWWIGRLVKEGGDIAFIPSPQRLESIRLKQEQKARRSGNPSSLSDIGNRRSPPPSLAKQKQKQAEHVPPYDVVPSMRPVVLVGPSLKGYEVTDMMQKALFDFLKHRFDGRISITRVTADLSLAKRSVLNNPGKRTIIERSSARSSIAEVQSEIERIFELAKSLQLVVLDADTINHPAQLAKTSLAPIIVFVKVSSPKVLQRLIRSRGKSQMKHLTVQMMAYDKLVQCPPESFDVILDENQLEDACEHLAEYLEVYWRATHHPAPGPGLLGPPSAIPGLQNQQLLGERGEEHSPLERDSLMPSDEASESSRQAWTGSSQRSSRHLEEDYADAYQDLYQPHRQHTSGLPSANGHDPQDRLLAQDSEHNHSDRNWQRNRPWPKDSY

SMILES	IC50
CC(CNC(=O)CN1CCC(c2ccc(F)cc2)(c2ccc(F)cc2)C1=O)(c1ccccc1)c1ccccc1 [Example 59, 2-[3,3-bis(4-fluorophenyl)-2-oxopyrrolidin-1-yl]-N-(2,2-diphenylpropyl)acetamide]	2.38 µM
O=C(CN1CCC(c2ccc(F)cc2)C1=O)N1Cc2ccc(F)cc2C1 (stereo not drawn) [Example 227, 1-[2-(5-fluoro-1,3-dihydro-2H-isoindol-2-yl)-2-oxoethyl]-3-(4-fluorophenyl)pyrrolidin-2-one]	12.1 µM
O=C(CN1CCC(c2ccc(Cl)c(Cl)c2)C1=O)N1Cc2ccc(F)cc2C1 (stereo not drawn) [Example 270, 3-(3,4-dichlorophenyl)-1-[2-(5-fluoro-1,3-dihydro-2H-isoindol-2-yl)-2-oxoethyl]pyrrolidin-2-one]	5.25 µM
O=C1N(Cc2nc(-c3ccc(F)cc3)no2)CCC1(c1ccccc1)c1ccccc1 [Example 194, 1-{[3-(4-fluorophenyl)-1,2,4-oxadiazol-5-yl]methyl}-3,3-diphenylpyrrolidin-2-one]	4.08 µM
O=C(CN1CCC(c2ccc(F)cc2)(c2ccc(F)cc2)C1=O)N1CCc2ccccc2C1 [Example 258, 1-[2-(3,4-dihydroisoquinolin-2(1H)-yl)-2-oxoethyl]-3,3-bis(4-fluorophenyl)pyrrolidin-2-one]	4.45 µM
O=C(CN1CCCC(c2ccccc2)(c2ccccc2)C1=O)N1CCC(Oc2cccc(Cl)c2)CC1 [Example 159, 1-{2-[4-(3-chlorophenoxy)piperidin-1-yl]-2-oxoethyl}-3,3-diphenylpiperidin-2-one]	3.73 µM
COc1ccc(C2(c3ccc(OC)cc3)CCN(CCNC(=O)c3ccccc3)C2=O)cc1 [Example 112, N-{2-[3,3-bis(4-methoxyphenyl)-2-oxopyrrolidin-1-yl]ethyl}benzamide]	10 µM
COc1ccc(OC2CCN(C(=O)CN3CCCC(c4ccccc4)(c4ccccc4)C3=O)CC2)cc1 [Example 161, 1-{2-[4-(4-methoxyphenoxy)piperidin-1-yl]-2-oxoethyl}-3,3-diphenylpiperidin-2-one]	5.74 µM
O=C(CN1CCC(c2ccccc2)(c2ccccc2)C1=O)Nc1ccc(Cl)cn1 [Example 5, N-(5-chloropyridin-2-yl)-2-(2-oxo-3,3-diphenylpyrrolidin-1-yl)acetamide]	4.51 µM
O=C1N(Cc2nc(-c3ccc(Br)cc3)no2)CCC1(c1ccc(F)cc1)c1ccc(F)cc1 [Example 233, 1-{[3-(4-bromophenyl)-1,2,4-oxadiazol-5-yl]methyl}-3,3-bis(4-fluorophenyl)pyrrolidin-2-one]	6.29 µM
N#Cc1ccc(C2CN(C(=O)CN3CCCC(c4ccccc4)(c4ccccc4)C3=O)C2)cc1 [Example 241, 4-{1-[(2-oxo-3,3-diphenylpiperidin-1-yl)acetyl]azetidin-3-yl}benzonitrile]	8.96 µM
O=C(CN1CCC(c2ccccc2)(c2ccccc2)C1=O)NCc1ccc(C(F)(F)F)nc1 [Example 2, 2-(2-oxo-3,3-diphenylpyrrolidin-1-yl)-N-{[6-(trifluoromethyl)pyridin-3-yl]methyl}acetamide]	5.28 µM
O=C(CN1CCC(c2ccc(F)cc2)(c2ccc(F)cc2)C1=O)NC1CN(Cc2ccccc2)C1 [Example 242, N-(1-benzylazetidin-3-yl)-2-[3,3-bis(4-fluorophenyl)-2-oxopyrrolidin-1-yl]acetamide]	3.17 µM
O=C1N(Cc2nc(-c3ccc(C(F)(F)F)nc3)no2)CCCC1(c1ccccc1)c1ccccc1 [Example 177, 3,3-diphenyl-1-({3-[6-(trifluoromethyl)pyridin-3-yl]-1,2,4-oxadiazol-5-yl}methyl)piperidin-2-one]	3.37 µM
O=C1N(S(=O)(=O)c2ccccc2C(F)(F)F)CCC1(c1ccccc1)c1ccccc1 [Example 148, 3,3-diphenyl-1-{[2-(trifluoromethyl)phenyl]sulfonyl}pyrrolidin-2-one]	6.88 µM
Cc1nc(-c2cccc(C(F)(F)F)c2)sc1CN1CCC(c2ccccc2)(c2ccccc2)C1=O [Example 157, 1-({4-methyl-2-[3-(trifluoromethyl)phenyl]-1,3-thiazol-5-yl}methyl)-3,3-diphenylpyrrolidin-2-one]	5.21 µM
CC(C)N1CCN(CC(=O)N2CCN(C(c3ccc(F)cc3)c3ccc(F)cc3)CC2)C(=O)C1c1ccccc1 (stereo not drawn) [Example 273, 1-(2-(4-(bis(4-fluorophenyl)methyl)piperazin-1-yl)-2-oxoethyl)-4-isopropyl-3-phenylpiperazin-2-one]	2.48 µM
O=C1N(CCN2CCN(c3ncccn3)CC2)CCCC1(c1ccc(F)cc1)c1ccc(F)cc1 [Example 136, 3,3-bis(4-fluorophenyl)-1-[2-(4-pyrimidin-2-ylpiperazin-1-yl)ethyl]piperidin-2-one]	3.32 µM
O=C1C(c2ccc(F)cc2)CCN1Cc1nc(-c2ccc(C(F)(F)F)cc2)no1 (stereo not drawn) [Example 189, 3-(4-fluorophenyl)-1-({3-[4-(trifluoromethyl)phenyl]-1,2,4-oxadiazol-5-yl}methyl)pyrrolidin-2-one]	5.82 µM
O=C1N(Cc2nc(-c3ccncc3)no2)CCC1(c1ccccc1)c1ccccc1 [Example 222, 3,3-diphenyl-1-[(3-pyridin-4-yl-1,2,4-oxadiazol-5-yl)methyl]pyrrolidin-2-one]	5.43 µM
O=C(CN1CCC(c2ccc(F)cc2)(c2ccc(F)cc2)C1=O)Nc1ccc(C(F)(F)F)nc1 [Example 224, 2-[3,3-bis(4-fluorophenyl)-2-oxopyrrolidin-1-yl]-N-[6-(trifluoromethyl)pyridin-3-yl]acetamide]	3.88 µM
O=C(CN1CCC(c2ccccc2)(c2ccccc2)C1=O)NCc1ccc(F)cc1 [Example 12, N-(4-fluorobenzyl)-2-(2-oxo-3,3-diphenylpyrrolidin-1-yl)acetamide]	3.89 µM

More lines, in order of falling IC50, values ahead:

IC50	SMILES
2.35 µM	CN(CCc1ccccc1)CCN1CCCC(c2ccc(F)cc2)(c2ccc(F)cc2)C1=O [Example 122, 3,3-bis(4-fluorophenyl)-1-{2-[methyl(2-phenylethyl)amino]ethyl}piperidin-2-one]
2.22 µM	O=C(CN1CCC(c2ccccc2)(c2ccccc2)C1=O)N1CCN(Cc2ccc(F)cc2)CC1 [Example 38, 1-{2-[4-(4-fluorobenzyl)piperazin-1-yl]-2-oxoethyl}-3,3-diphenylpyrrolidin-2-one]
2.16 µM	O=C(CN1CCC(c2ccccc2)(c2ccccc2)C1=O)N1CCC(c2ccc(F)cc2)(c2ccc(F)cc2)C1 [Example 203, 1-{2-[3,3-bis(4-fluorophenyl)pyrrolidin-1-yl]-2-oxoethyl}-3,3-diphenylpyrrolidin-2-one]
1.77 µM	CC(C)(C)OC(=O)N1CCN(CC(=O)N2CCN(C(c3ccccc3)c3ccccc3)CC2)C(=O)C1c1ccccc1 (stereo not drawn) [Example 101, tert-butyl 4-[2-(4-benzhydrylpiperazin-1-yl)-2-oxoethyl]-3-oxo-2-phenylpiperazine-1-carboxylate]
1.64 µM	O=C(CN1CCCC(c2ccccc2)(c2ccccc2)C1=O)N1C[C@@H]2CCCN(C(c3ccccc3)c3ccccc3)[C@@H]2C1 [Example 88, 1-{2-[(4aS,7aS)-1-benzhydryloctahydro-6H-pyrrolo[3,4-b]pyridin-6-yl]-2-oxoethyl}-3,3-diphenylpiperidin-2-one]
1.63 µM	COc1cccc(CCN(C)CCCN2CCCC(c3ccc(F)cc3)(c3ccc(F)cc3)C2=O)c1 [Example 121, 3,3-bis(4-fluorophenyl)-1-{3-[[2-(3-methoxyphenyl)ethyl](methyl)amino]propyl}piperidin-2-one]
1.56 µM	O=C1N(CCN2CCN(c3cccc(C(F)(F)F)c3)CC2)CCCC1(c1ccccc1)c1ccccc1 [Example 141, 3,3-diphenyl-1-(2-{4-[3-(trifluoromethyl)phenyl]piperazin-1-yl}ethyl)piperidin-2-one]
1.53 µM	COc1ccc(C2(c3ccc(OC)cc3)CCCN(CCCN(C)Cc3cc(OC)cc(OC)c3)C2=O)cc1 [Example 127, 1-{3-[(3,5-dimethoxybenzyl)(methyl)amino]propyl}-3,3-bis(4-methoxyphenyl)piperidin-2-one]
1.49 µM	COc1ccc(C2(c3ccc(OC)cc3)CCCN(CCN(C)CCc3ccc(OC)cc3OC)C2=O)cc1 [Example 126, 1-{2-[[2-(2,4-dimethoxyphenyl)ethyl](methyl)amino]ethyl}-3,3-bis(4-methoxyphenyl)piperidin-2-one]
1.31 µM	O=C(CN1CCC(c2ccc(F)cc2)(c2ccc(F)cc2)C1=O)N1CCC(c2ccccc2)(c2ccccc2)C1 [Example 61, 1-[2-(3,3-diphenylpyrrolidin-1-yl)-2-oxoethyl]-3,3-bis(4-fluorophenyl)pyrrolidin-2-one]
1.12 µM	COc1cccc(CCN(C)CCCN2CCCC(c3cccc(OC)c3)(C(C)C)C2=O)c1 (stereo not drawn) [Example 128, 3-isopropyl-3-(3-methoxyphenyl)-1-{3-[[2-(3-methoxyphenyl)ethyl](methyl)amino]propyl}piperidin-2-one]
0.9 µM	CC(CNC(=O)CN1CCC(c2ccccc2)(c2ccccc2)C1=O)(c1ccccc1)c1ccccc1 [Example 16, N-(2,2-diphenylpropyl)-2-(2-oxo-3,3-diphenylpyrrolidin-1-yl)acetamide]
0.89 µM	O=C(CN1CCC(c2ccccc2)(c2ccccc2)C1=O)NC1(c2ccccc2)CCC1 [Example 11, 2-(2-oxo-3,3-diphenylpyrrolidin-1-yl)-N-(1-phenylcyclobutyl)acetamide]
0.45 µM	O=C(CN1CCC(c2ccccc2)(c2ccccc2)C1=O)N1CCN(C(c2ccccc2)c2ccc(F)cc2)CC1 (stereo not drawn) [Example 46, 1-(2-{4-[(4-fluorophenyl)(phenyl)methyl]piperazin-1-yl}-2-oxoethyl)-3,3-diphenylpyrrolidin-2-one]
